According to ChEMBL document CHEMBL5338751, “Discovery of the First-in-Class Intestinal Restricted FXR and FABP1 Dual Modulator ZLY28 for the Treatment of Nonalcoholic Fatty Liver Disease” (J Med Chem, 2023):
Calls of active or inactive are those of the source. The rule behind the calls is not given here.

Assays:
Mus musculus = experiment: Anti-NASH activity in western diet and CCl4-induced nonalcoholic steatohepatitis C57BL/6 mouse assessed as alleviation of hepatic steatosis at 20 mg/kg, po administered for 12 weeks starting from week 8 and change in dose for every 5 days; format: functional, organism-based; settings: time 4.0 weeks
[1] = target: T1, Peroxisome proliferator-activated receptor alpha (Homo sapiens, UniProt Q07869); experiment: Inhibition of pBIND-PPARalpha (unknown origin) transfected in HepG2 cells incubated for 18 hrs in presence of […] by dual luciferase reporter assay; format: cell-based
T1 sequence (Q07869 whole entry): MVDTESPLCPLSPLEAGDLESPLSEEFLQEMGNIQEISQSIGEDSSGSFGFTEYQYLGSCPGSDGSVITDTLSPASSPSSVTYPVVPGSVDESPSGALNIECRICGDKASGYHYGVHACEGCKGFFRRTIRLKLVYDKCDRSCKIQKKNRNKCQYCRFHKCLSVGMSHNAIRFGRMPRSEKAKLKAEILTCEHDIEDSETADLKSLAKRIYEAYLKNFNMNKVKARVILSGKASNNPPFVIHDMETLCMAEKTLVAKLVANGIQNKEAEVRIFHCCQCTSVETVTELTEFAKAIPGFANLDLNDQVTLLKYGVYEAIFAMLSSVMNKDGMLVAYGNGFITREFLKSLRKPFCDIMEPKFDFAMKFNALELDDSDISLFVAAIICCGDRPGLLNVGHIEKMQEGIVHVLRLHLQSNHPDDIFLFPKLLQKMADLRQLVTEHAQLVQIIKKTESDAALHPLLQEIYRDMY

[2] = target: Retinoic acid receptor alpha (Homo sapiens, UniProt P10276); experiment: Activation of Gal-DBD and NHRLBD fused RARalpha (unknown origin) transfected in African green monkey CV-1 cells by luciferase reporter assay; format: cell-based
Sequence of Retinoic acid receptor alpha (P10276 whole entry, the tested form may be a part): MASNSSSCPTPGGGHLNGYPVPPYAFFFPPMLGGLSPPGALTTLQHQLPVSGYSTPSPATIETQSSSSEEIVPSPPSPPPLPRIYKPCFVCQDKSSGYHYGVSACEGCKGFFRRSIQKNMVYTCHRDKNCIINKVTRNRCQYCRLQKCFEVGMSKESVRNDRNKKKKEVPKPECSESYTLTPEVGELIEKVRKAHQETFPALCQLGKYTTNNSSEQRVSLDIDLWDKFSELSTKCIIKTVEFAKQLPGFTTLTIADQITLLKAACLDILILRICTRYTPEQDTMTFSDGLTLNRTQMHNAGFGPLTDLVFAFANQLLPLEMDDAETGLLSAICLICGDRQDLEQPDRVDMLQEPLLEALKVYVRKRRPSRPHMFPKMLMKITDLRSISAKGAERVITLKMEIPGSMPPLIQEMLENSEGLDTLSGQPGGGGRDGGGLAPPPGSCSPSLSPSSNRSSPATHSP

[3] = Subacute toxicity in ICR mouse assessed as changes in serum BUN level at 500 mg/kg/day, po administered for 14 days; format: organism-based; settings: in vivo, 336 h, time 14 day
[4] = target: G-protein coupled bile acid receptor 1 (Homo sapiens, UniProt Q8TDU6); experiment: Activation of TGR5 (unknown origin) transfected in human NCI-H716 cells assessed as increase in cAMP production incubated for 24 hrs by HTR-FRET assay; format: functional, cell-based
Sequence of G-protein coupled bile acid receptor 1 (Q8TDU6 whole entry): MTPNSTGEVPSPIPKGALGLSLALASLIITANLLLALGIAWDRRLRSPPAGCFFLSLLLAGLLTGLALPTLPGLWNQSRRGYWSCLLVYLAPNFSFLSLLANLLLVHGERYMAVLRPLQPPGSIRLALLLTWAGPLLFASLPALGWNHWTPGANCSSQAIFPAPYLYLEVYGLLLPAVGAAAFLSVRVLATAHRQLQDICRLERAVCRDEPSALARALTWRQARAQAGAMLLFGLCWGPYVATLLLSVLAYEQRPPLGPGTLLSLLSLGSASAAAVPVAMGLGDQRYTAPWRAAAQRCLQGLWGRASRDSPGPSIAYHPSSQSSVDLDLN

[5] = Subacute toxicity in ICR mouse assessed as abnormal behaviour at 500 mg/kg/day, po administered for 14 days; format: organism-based; settings: in vivo, 336 h, time 14 day
[6] = Metabolic stability in mouse liver microsomes assessed as parent compound remaining incubated for 1 hr by LC-MS analysis; format: ADME, Microsome; settings: read-out: Stability
Bile acid receptor = target: T2, Bile acid receptor (Homo sapiens, UniProt Q96RI1); experiment: Agonist activity at FXR-LBD (unknown origin) using fluorescein-coactivator peptide incubated for 3 hrs by TR-FRET assay
T2 sequence (Q96RI1 whole entry): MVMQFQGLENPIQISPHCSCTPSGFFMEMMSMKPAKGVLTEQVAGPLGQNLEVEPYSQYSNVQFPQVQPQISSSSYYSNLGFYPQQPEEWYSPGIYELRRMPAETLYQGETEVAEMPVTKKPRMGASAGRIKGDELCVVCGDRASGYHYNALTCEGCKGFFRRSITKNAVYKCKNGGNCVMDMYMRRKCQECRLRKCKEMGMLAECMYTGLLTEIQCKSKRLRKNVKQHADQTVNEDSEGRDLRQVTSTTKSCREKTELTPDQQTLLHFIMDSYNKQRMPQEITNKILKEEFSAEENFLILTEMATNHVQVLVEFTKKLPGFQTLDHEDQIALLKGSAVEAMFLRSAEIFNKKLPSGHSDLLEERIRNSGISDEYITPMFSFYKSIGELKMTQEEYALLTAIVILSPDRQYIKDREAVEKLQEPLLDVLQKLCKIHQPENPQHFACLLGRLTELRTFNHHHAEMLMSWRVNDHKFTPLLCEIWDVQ

[7] = Subacute toxicity in ICR mouse assessed as changes in serum TBA level at 500 mg/kg/day, po administered for 14 days; format: organism-based; settings: in vivo, 336 h, time 14 day
[8] = target: T3, Bile acid receptor (Mus musculus) (UniProt Q60641); experiment: In vivo activation of FXR pathway in western diet and CCl4-induced nonalcoholic steatohepatitis C57BL/6 mouse model assessed as upregulation of OST-beta gene expression in ileum at 20 mg/kg, po administered for 12 weeks starting from week 8 and change in dose for every 5 days by RT-PCR analysis; format: functional, organism-based; settings: time 4.0 weeks
T3 sequence (whole entry): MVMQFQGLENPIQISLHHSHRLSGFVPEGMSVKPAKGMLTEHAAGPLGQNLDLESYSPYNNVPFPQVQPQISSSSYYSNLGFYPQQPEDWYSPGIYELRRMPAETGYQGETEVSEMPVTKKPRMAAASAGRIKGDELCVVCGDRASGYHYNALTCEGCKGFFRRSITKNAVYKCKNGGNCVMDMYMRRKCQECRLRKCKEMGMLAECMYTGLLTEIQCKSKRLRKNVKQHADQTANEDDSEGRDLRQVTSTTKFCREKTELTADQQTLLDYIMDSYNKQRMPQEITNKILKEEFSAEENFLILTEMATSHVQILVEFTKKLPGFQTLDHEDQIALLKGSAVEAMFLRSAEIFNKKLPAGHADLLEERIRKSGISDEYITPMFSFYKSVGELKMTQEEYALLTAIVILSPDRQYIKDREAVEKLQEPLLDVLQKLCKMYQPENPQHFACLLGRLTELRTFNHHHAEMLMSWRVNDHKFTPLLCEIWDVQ

Glucocorticoid receptor = Glucocorticoid receptor (Homo sapiens, UniProt P04150); experiment: Activation of Gal-DBD and NHRLBD fused GR (unknown origin) transfected in African green monkey CV-1 cells by luciferase reporter assay; format: cell-based
Sequence of Glucocorticoid receptor (P04150 whole entry, the tested form may be a part): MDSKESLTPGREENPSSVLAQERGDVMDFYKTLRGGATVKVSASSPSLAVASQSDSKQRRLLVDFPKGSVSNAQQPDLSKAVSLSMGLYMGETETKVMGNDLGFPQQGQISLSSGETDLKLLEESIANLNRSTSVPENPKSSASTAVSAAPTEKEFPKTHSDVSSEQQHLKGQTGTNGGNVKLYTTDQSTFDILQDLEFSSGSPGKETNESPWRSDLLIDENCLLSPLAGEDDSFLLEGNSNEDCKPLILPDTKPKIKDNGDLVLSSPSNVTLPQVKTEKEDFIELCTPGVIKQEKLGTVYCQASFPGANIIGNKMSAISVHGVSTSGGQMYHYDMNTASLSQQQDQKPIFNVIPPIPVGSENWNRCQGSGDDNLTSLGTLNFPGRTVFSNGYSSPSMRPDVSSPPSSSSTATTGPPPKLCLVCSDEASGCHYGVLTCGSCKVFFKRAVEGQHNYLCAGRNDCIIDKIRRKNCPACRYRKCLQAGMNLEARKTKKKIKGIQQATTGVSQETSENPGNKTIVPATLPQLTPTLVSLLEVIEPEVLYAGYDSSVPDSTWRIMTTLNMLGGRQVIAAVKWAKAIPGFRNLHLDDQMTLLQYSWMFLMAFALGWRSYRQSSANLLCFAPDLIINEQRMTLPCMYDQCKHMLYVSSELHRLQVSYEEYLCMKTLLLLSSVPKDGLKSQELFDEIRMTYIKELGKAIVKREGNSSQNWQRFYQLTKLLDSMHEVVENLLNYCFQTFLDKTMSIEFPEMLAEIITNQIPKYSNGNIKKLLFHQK

[9] = target: T4, Fatty acid-binding protein, liver (Homo sapiens, UniProt P07148); experiment: Displacement of 8-anilino-1-naphthalene-sulfonic acid from FABP1 (unknown origin) incubated for 3 mins by fluorescence based assay
T4 sequence (P07148 whole entry): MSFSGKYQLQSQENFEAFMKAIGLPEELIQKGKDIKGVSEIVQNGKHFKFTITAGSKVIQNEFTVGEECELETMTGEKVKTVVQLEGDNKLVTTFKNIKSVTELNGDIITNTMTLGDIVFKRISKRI

[10] = Subacute toxicity in ICR mouse assessed as animal death at 500 mg/kg/day, po administered for 14 days; format: organism-based; settings: in vivo, 336 h, time 14 day
[11] = target: Retinoic acid receptor gamma (Homo sapiens, UniProt P13631); experiment: Activation of Gal-DBD and NHRLBD fused RARgamma (unknown origin) transfected in African green monkey CV-1 cells by luciferase reporter assay; format: cell-based
Sequence of Retinoic acid receptor gamma (P13631 whole entry, the tested form may be a part): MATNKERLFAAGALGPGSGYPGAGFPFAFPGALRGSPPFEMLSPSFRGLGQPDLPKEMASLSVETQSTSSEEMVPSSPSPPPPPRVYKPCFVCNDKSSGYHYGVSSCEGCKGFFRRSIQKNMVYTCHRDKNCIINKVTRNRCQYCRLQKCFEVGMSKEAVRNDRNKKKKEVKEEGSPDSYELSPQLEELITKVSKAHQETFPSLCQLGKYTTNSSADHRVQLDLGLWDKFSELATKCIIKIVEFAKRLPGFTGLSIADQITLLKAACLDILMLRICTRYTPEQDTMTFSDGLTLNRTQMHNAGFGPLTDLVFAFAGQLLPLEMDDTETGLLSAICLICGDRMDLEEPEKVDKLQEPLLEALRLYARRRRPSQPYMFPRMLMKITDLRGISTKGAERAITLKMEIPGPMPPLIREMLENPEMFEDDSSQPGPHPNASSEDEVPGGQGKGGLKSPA

## O=C(O)C1(c2cccc(-c3ccc(OCc4c(-c5c(Cl)cccc5Cl)noc4C4CC4)cc3)c2)CC1
Mus musculus
  Activity: Active
[1]
  IC50: > 10 µM
[2]
  EC50: > 10 µM
[3]
  Activity: Non-Toxic
[4]
  EC50: > 10 µM
[5]
  Activity: Non-Toxic
[6]
  remaining at 1 h: 64.3%
Bile acid receptor
  EC50: 143 nM
[7]
  Activity: Non-Toxic
[8]
  Activity: Active
Glucocorticoid receptor
  EC50: > 10 µM
[9]
  IC50: 2700 nM
[10]
  Activity: Non-Toxic
[11]
  EC50: > 10 µM
